Data: patent publication US20020094522A1, “Means and methods for monitoring non-nucleoside reverse transcriptase inhibitor antiretroviral therapy and guiding therapeutic decisions in the treatment of HIV/AIDS” (priority 2000, published 2002)

Assays:
[1] = system: RTV-1058 Clone 10 (L100I, K103N and Y188L); assay: Phenotypic susceptibility assay, RTV-1058 clone 10; assay type: cell-based, HIV-1
Protocol: (§1) The resistance test vectors containing a functional luciferase gene cassette were constructed and host cells were transfected with the resistance test vector DNA. The resistant test vectors contained patient-derived reverse transcriptase and protease sequences that were either susceptible or resistant to the antiretroviral agents, such as nucleoside reverse transcriptase inhibitors, non-nucleoside reverse transcriptase inhibitors and protease inhibitors. […] The IC50 values were determined by plotting percent drug inhibition vs. log10 drug concentration.
(§2) Host cells were seeded in 10-cm-diameter dishes and were transfected several days after plating with resistance test vector plasmid DNA and the envelope expression vector. […] HIV capsid protein (p24) levels in the harvested cell culture media were determined by an EIA method as described by the manufacturer (SIAC; Frederick, Md.). […] The inhibitory effect of the drug was determined using the following equation: […]
A resistance test vector was constructed as described in Example 1 from a patient sample designated 98-1058. […] An IC50 was determined for the resistance test vector pool for each drug tested.

[2] = system: RTVs containing P236L plus K103N, Y181C or both (K103N+Y181C); assay: Phenotypic susceptibility assay, P236L added to K103N, Y181C or both; assay type: cell-based, HIV-1; settings: P236L with K103N
Protocol: (§3) Transfections were performed using a calcium-phosphate precipitation procedure. […] Cell lysates were assayed for luciferase activity (FIG. 3).
(§4) The drug inhibition curves are shown in (FIG. 3).
Resistance test vectors were constructed containing the P236L mutation alone and in combination with other known drug resistance mutations (K103N, Y181C) that are known to modulate the susceptibility of HIV-1 to NNRTIs. […] The P236L mutation was also introduced into a RTV containing mutations at K103N, Y181C or both (K103N+Y181C).

[3] = system: RTV-964 (patient sample 98-964); assay: Phenotypic susceptibility assay, RTV-964; assay type: cell-based, HIV-1; settings: RTV-964, patient-derived pool
Protocol: as §3, §4
A resistance test vector was constructed as described in Example 1 from a patient sample designated 98-964. […] Isolation of viral RNA and RT/PCR was used to generate a patient derived segment that comprised viral sequence coding for all of PR and aa 1-313 of RT. The PDS was inserted into an indicator gene viral vector to generate a resistance test vector designated RTV-964. RTV-964 was then tested in a phenotypic assay to determine accurately and quantitatively the level of susceptibility to a panel of anti-retroviral drugs. […] An IC50 was determined for the resistance test vector pool for each drug tested. The pattern of susceptibility to all of the drugs tested was examined and compared to known patterns of susceptibility.

[4] = system: patient 780 virus (RT K103N, P225H); assay: Phenotypic susceptibility assay, patient 780; assay type: cell-based, HIV; settings: patient 780, FIG. 8B
Source text: as §1, with “inhibitors. The resistance test vector viral particles produced by transfecting the resistance test vector DNA into host cells, either in the presence or absence of protease inhibitors, were used to infect target host cells grown either in the absence of NRTI or NNRTI or in the presence of increasing concentrations of the drug.” for “inhibitors.”
as §2

[5] = system: RTV-209 (patient sample 97-209); assay: Phenotypic susceptibility assay, RTV-209; assay type: cell-based, HIV-1; settings: RTV-209, patient-derived pool
Protocol: as §3, §4
A resistance test vector was constructed as described in Example 1 from a patient sample designated 97-209. This patient had been previously treated with AZT, ddI, d4T and 3TC (NRTIs), indinavir (a PRIs) and adefovir. Isolation of viral RNA and RT/PCR was used to generate a patient derived segment that comprised viral sequences coding for all of PR and aa 1-313 of RT. The PDS was inserted into an indicator gene viral vector to generate resistance test vector designated RTV-209. RTV-209 was then tested in a phenotypic assay to determine accurately and quantitatively the level of susceptibility to a panel of anti-retroviral drugs. […] An IC50 was determined for the resistance test vector pool for each drug tested. […]. The pattern of susceptibility to all of the drugs tested was examined and compared to known patterns of susceptibility.

[6] = system: RTV-302 (patient sample 97-302; K103N, P225H); assay: Phenotypic susceptibility assay, RTV-302; assay type: cell-based, HIV-1; settings: RTV-302, patient-derived
Protocol: as §3, §4
A resistance test vector was constructed as described in example 1 from a patient sample designated as 97-302. This patient had been treated with d4T, indinavir and DMP-266 for a period of approximately 10 months. Isolation of viral RNA and RT/PCR was used to generate a patient derived segment that comprised viral sequences coding for all of PR and aa 1-313 of RT. The patient derived segment was inserted into a indicator gene viral vector to generate a resistance test vector designated RTV-302. RTV-302 was tested using a phenotypic susceptibility assay to determine accurately and quantitatively the level of susceptibility to a panel of anti-retroviral drugs. […] An IC50 was determined for each drug tested. Susceptibility of the patient virus to each drug was examined and compared to known patterns of susceptibility.

[7] = system: RTV-644 (patient sample 97-644 / 98-644); assay: Phenotypic susceptibility assay, RTV-644; assay type: cell-based, HIV-1; settings: for susceptibility/resistance compared to reference virus: RTV-644, Example 5; for fold decrease in susceptibility (IC50): RTV-644, patient-derived pool
Source text: The resistance test vectors containing a functional luciferase gene cassette were constructed and host cells were transfected with the resistance test vector DNA. The resistant test vectors contained patient-derived reverse transcriptase and protease sequences that were either susceptible or resistant to the antiretroviral agents, such as nucleoside reverse transcriptase inhibitors, non-nucleoside reverse transcriptase inhibitors and protease inhibitors. The resistance test vector viral particles produced by transfecting the resistance test vector DNA into host cells, either in the presence or absence of protease inhibitors, were used to infect target host cells grown either in the absence of NRTI or NNRTI or in the presence of increasing concentrations of the drug. The amount of luciferase activity produced in infected target host cells in the presence of drug was compared to the amount of luciferase produced in infected target host cells in the absence of drug. Drug resistance was measured as the amount of drug required to inhibit by 50% the luciferase activity detected in the absence of drug (inhibitory concentration 50%, IC50). The IC50 values were determined by plotting percent drug inhibition vs. log10 drug concentration.
Host cells were seeded in 10-cm-diameter dishes and were transfected several days after plating with resistance test vector plasmid DNA and the envelope expression vector. Transfections were performed using a calcium-phosphate precipitation procedure. The cell culture media containing the DNA precipitate was replaced with fresh medium, from one to 24 hours, after transfection. Cell culture media containing resistance test vector viral particles was harvested one to four days after transfection and was passed through a […] filter before being stored at −80° C. HIV capsid protein (p24) levels in the harvested cell culture media were determined by an EIA method as described by the manufacturer (SIAC; Frederick, Md.). Before infection, target cells (293 and 293/T) were plated in cell culture media. Control infections were performed using cell culture media from mock transfections (no DNA) or transfections containing the resistance test vector plasmid DNA without the envelope expression plasmid. One to three or more days after infection the media was removed and cell lysis buffer (Promega) was added to each well. […] The inhibitory effect of the drug was determined using the following equation: […]
Isolation of viral RNA and RT/PCR was used to generate a patient derived segment that comprised viral sequences coding for all of PR and amino acids 1-313 of RT. […] An IC50 was determined for each drug tested. […]

## CC(C)Nc1cccnc1N1CCN(C(=O)c2cc3cc(NS(C)(=O)=O)ccc3[nH]2)CC1 [delavirdine]
[1]
  fold loss of susceptibility (IC50): greater than 250 fold
[2]
  change in susceptibility compared to the corresponding RTV lacking P236L: less susceptible (more resistant) to delavirdine if the P236L mutation was present
[3]
  fold decrease in susceptibility (IC50): 10 fold
[4]
  susceptibility/resistance profile: reduced susceptibility
[5]
  fold decrease in susceptibility (IC50): 75 fold
[6]
  change in susceptibility: modest decrease in delavirdine susceptibility
[7]
  susceptibility/resistance compared to reference virus: little or no resistance to delavirdine
  fold decrease in susceptibility (IC50): 2.5 fold

## Cc1ccnc2c1NC(=O)c1cccnc1N2C1CC1 [nevirapine]
[1]
  fold loss of susceptibility (IC50): greater than 800 fold
[2]
  change in susceptibility compared to the corresponding RTV lacking P236L: did not significantly alter nevirapine susceptibility
[3]
  fold decrease in susceptibility (IC50): 750 fold
[4]
  susceptibility/resistance profile: reduced susceptibility
[5]
  fold decrease in susceptibility (IC50): greater than 800 fold
[6]
  change in susceptibility: significant decrease in nevirapine susceptibility
[7]
  susceptibility/resistance compared to reference virus: resistant to nevirapine
  fold decrease in susceptibility (IC50): 600 fold
